Experimental data published in patent US11590139B2, “Substituted aminopurine compounds, compositions thereof, and methods of treatment therewith” (Signal Pharmaceuticals, LLC, priority 2014, dated 2023).

test system: Lox-IMVI melanoma cell line; experiment: Lox-IMVI anti-proliferative assay (growth inhibition, Cell Titer-Glo); format: cell-based, human; details: Homo sapiens; IC50 activity level in the cell-based Lox-IMVI anti-proliferative assay; read-out: Activity
Procedure, shortened: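 Lox-IMVI cells in RPMI+10% FBS exposed 72 h at 37 °C to 10-point, 3-fold dilutions (0.5 nM–10 μM; 0.2% DMSO final), in duplicate. Viability by Cell Titer-Glo luminescence, with a t0 cell-number reading; data as % of DMSO control; IC50 from a four-parameter logistic fit.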

SMILES	IC50
NC(=O)[C@H]1CC[C@@H](n2c(Nc3cc(F)c(Cl)cc3Cl)nc3cnc(NC4CCOCC4)nc32)CC1 [Example 105, (1s,4s)-4-(8-(2,4-dichloro-5-fluorophenylamino)-2-(tetrahydro-2H-pyran-4-ylamino)-9H-purin-9-yl)cyclohexanecarboxamide]	> 1000 nM
Cc1cccc(F)c1Nc1nc2cnc(NC3CCOCC3)nc2n1[C@H]1CC[C@@H](C(N)=O)CC1 [Example 63, (1s,4s)-4-(8-(2-fluoro-6-methylphenylamino)-2-(tetrahydro-2H-pyran-4-ylamino)-9H-purin-9-yl)cyclohexanecarboxamide]	> 1000 nM
NC(=O)[C@H]1CC[C@@H](n2c(Nc3c(F)cccc3Cl)nc3cnc(NC4CCN(c5ccccc5)CC4)nc32)CC1 [Example 108, (1s,4s)-4-(8-(2-chloro-6-fluorophenylamino)-2-(1-phenylpiperidin-4-ylamino)-9H-purin-9-yl)cyclohexanecarboxamide]	> 1000 nM
CC[C@@H](CO)Nc1ncc2nc(Nc3ccc(Cl)cc3Cl)n([C@H]3CC[C@@H](C(N)=O)CC3)c2n1 [Example 149, (1R,4s)-4-(8-(2,4-dichlorophenylamino)-2-((S)-1-hydroxybutan-2-ylamino)-9H-purin-9-yl)cyclohexanecarboxamide]	> 1000 nM
NC(=O)[C@H]1CC[C@@H](n2c(Nc3cc(Cl)ccc3F)nc3cnc(N[C@H]4COC[C@@H]4O)nc32)CC1 [Example 320, (1R,4s)-4-(8-(5-chloro-2-fluorophenylamino)-2-((3S,4R)-4-hydroxytetrahydrofuran-3-ylamino)-9H-purin-9-yl)cyclohexanecarboxamide]	> 1000 nM
NC(=O)[C@H]1CC[C@@H](n2c(Nc3c(F)cc(Cl)cc3F)nc3cnc(N[C@@H]4CCCOC4)nc32)CC1 [Example 188, (1S,4s)-4-(8-(4-chloro-2,6-difluorophenylamino)-2-((R)-tetrahydro-2H-pyran-3-ylamino)-9H-purin-9-yl)cyclohexanecarboxamide]	> 1000 nM

Other lines, results leading:

IC50	SMILES
> 1000 nM	NC(=O)[C@H]1CC[C@@H](n2c(Nc3c(Cl)cccc3Cl)nc3cnc(N[C@@H]4CC[C@@H](O)C4)nc32)CC1 [Example 211, (1S,4s)-4-(8-(2,6-dichlorophenylamino)-2-((1R,3R)-3-hydroxycyclopentylamino)-9H-purin-9-yl)cyclohexanecarboxamide]
> 1000 nM	CC[C@@H](CO)Nc1ncc2nc(Nc3c(Cl)cc(Cl)cc3Cl)n([C@H]3CC[C@@H](C(N)=O)CC3)c2n1 [Example 154, (1R,4s)-4-(2-((S)-1-hydroxybutan-2-ylamino)-8-(2,4,6-trichlorophenylamino)-9H-purin-9-yl)cyclohexanecarboxamide]
250 to 500 nM	NC(=O)[C@H]1CC[C@@H](n2c(Nc3c(F)cc(Cl)cc3Cl)nc3cnc(N[C@@H]4CC[C@@H](O)C4)nc32)CC1 [Example 213, (1S,4s)-4-(8-(2,4-dichloro-6-fluorophenylamino)-2-((1R,3R)-3-hydroxycyclopentylamino)-9H-purin-9-yl)cyclohexanecarboxamide]
> 1000 nM	NC(=O)[C@H]1CC[C@@H](n2c(Nc3c(F)cccc3Cl)nc3cnc(N[C@H]4CC[C@H](O)C4)nc32)CC1 [Example 325, (1R,4s)-4-(8-(2-chloro-6-fluorophenylamino)-2-((1S,3S)-3-hydroxycyclopentylamino)-9H-purin-9-yl)cyclohexanecarboxamide]
> 1000 nM	C[C@@H](CO)Nc1ncc2nc(Nc3cccc(Cl)c3F)n([C@H]3CC[C@@H](C(N)=O)CC3)c2n1 [Example 172, (1R,4s)-4-(8-(3-chloro-2-fluorophenylamino)-2-((S)-1-hydroxypropan-2-ylamino)-9H-purin-9-yl)cyclohexanecarboxamide]

same assay, conditions: Homo sapiens; Lox-IMVI anti-proliferative assay, IC50 activity level; read-out: Activity

SMILES	IC50
C[C@@H](CO)Nc1ncc2nc(Nc3c(F)cc(Cl)cc3F)n([C@H]3CC[C@@](C)(C(N)=O)CC3)c2n1 [Example 550, (1R,4s)-4-(8-(4-chloro-2,6-difluorophenylamino)-2-((S)-1-hydroxypropan-2-ylamino)-9H-purin-9-yl)-1-methylcyclohexanecarboxamide]	< 250 nM
NC(=O)[C@H]1CC[C@@H](n2c(Nc3ccc(Cl)c(F)c3F)nc3cnc(N[C@H]4CCC[C@H](O)C4)nc32)CC1 [Example 463, (1R,4s)-4-(8-(4-chloro-2,3-difluorophenylamino)-2-((1S,3S)-3-hydroxycyclohexylamino)-9H-purin-9-yl)cyclohexanecarboxamide]	> 1000 nM
C[C@]1(C(N)=O)CC[C@@H](n2c(Nc3c(Cl)cc(C(F)(F)F)cc3Cl)nc3cnc(NC4CCCC4)nc32)CC1 [Example 562, (1s,4s)-4-(2-(cyclopentylamino)-8-(2,6-dichloro-4-(trifluoromethyl)phenylamino)-9H-purin-9-yl)-1-methylcyclohexanecarboxamide]	> 1000 nM
NC(=O)[C@H]1CC[C@@H](n2c(Nc3c(Cl)cc(F)cc3Cl)nc3cnc(N[C@@H]4CCC[C@@H](O)C4)nc32)CC1 [Example 423, (1S,4s)-4-(8-(2,6-dichloro-4-fluorophenylamino)-2-((1R,3R)-3-hydroxycyclohexylamino)-9H-purin-9-yl)cyclohexanecarboxamide]	500 to 1000 nM
N#Cc1cc(F)c(Nc2nc3cnc(N[C@@H]4CCOC4)nc3n2[C@H]2CC[C@@H](C(N)=O)CC2)c(Cl)c1 [Example 520, (1S,4s)-4-(8-(2-chloro-4-cyano-6-fluorophenylamino)-2-((R)-tetrahydrofuran-3-ylamino)-9H-purin-9-yl)cyclohexanecarboxamide]	250 to 500 nM

Further lines, results first:

IC50	SMILES
> 1000 nM	NC(=O)[C@H]1CC[C@@H](n2c(Nc3c(F)cc(Cl)cc3F)nc3cnc(NCC(F)(F)CO)nc32)CC1 [Example 453, (1s,4s)-4-(8-(4-chloro-2,6-difluorophenylamino)-2-(2,2-difluoro-3-hydroxypropylamino)-9H-purin-9-yl)cyclohexanecarboxamide]
> 1000 nM	NC(=O)[C@H]1CC[C@@H](n2c(Nc3c(F)cc(Cl)cc3F)nc3cnc(N[C@@H]4CCCC[C@H](O)C4)nc32)CC1 [Example 438, (1S,4s)-4-(8-(4-chloro-2,6-difluorophenylamino)-2-((1R,3S)-3-hydroxycycloheptylamino)-9H-purin-9-yl)cyclohexanecarboxamide]
250 to 500 nM	N#Cc1cc(Cl)c(Nc2nc3cnc(NC4CC5(COC5)C4)nc3n2[C@H]2CC[C@@H](C(N)=O)CC2)c(Cl)c1 [Example 571, (1s,4s)-4-(2-(2-oxaspiro[3.3]heptan-6-ylamino)-8-(2,6-dichloro-4-cyanophenylamino)-9H-purin-9-yl)cyclohexanecarboxamide]
> 1000 nM	C[C@]1(O)CCC[C@@H](Nc2ncc3nc(Nc4ccc(F)cc4Cl)n([C@H]4CC[C@@H](C(N)=O)CC4)c3n2)C1 [Example 429, (1S,4s)-4-(8-(2-chloro-4-fluorophenylamino)-2-((1R,3S)-3-hydroxy-3-methylcyclohexylamino)-9H-purin-9-yl)cyclohexanecarboxamide]

same assay, conditions: Homo sapiens; Lox-IMVI melanoma cell line, anti-proliferative assay; read-out: Activity (IC50 activity level)

SMILES	IC50
N#Cc1cc(F)c(Nc2nc3cnc(NC[C@@H]4CCCC[C@@H]4O)nc3n2[C@H]2CC[C@@H](C(N)=O)CC2)c(Cl)c1 [Example 658, (1R,4s)-4-(8-(2-chloro-4-cyano-6-fluorophenylamino)-2-(((1S,2S)-2-hydroxycyclohexyl)methylamino)-9H-purin-9-yl)cyclohexanecarboxamide]	> 1000 nM
CC(=O)N1CCC[C@@H](Nc2ncc3nc(Nc4c(Cl)cc(C#N)cc4Cl)n([C@H]4CC[C@@H](C(N)=O)CC4)c3n2)C1 [Example 712, (1S,4s)-4-(2-((R)-1-acetylpiperidin-3-ylamino)-8-(2,6-dichloro-4-cyanophenylamino)-9H-purin-9-yl)cyclohexanecarboxamide]	> 1000 nM
CS(=O)(=O)N1CCC[C@@H](Nc2ncc3nc(Nc4c(Cl)cc(C#N)cc4Cl)n([C@H]4CC[C@@H](C(N)=O)CC4)c3n2)C1 [Example 702, (1S,4s)-4-(8-(2,6-dichloro-4-cyanophenylamino)-2-((R)-1-(methylsulfonyl)piperidin-3-ylamino)-9H-purin-9-yl)cyclohexanecarboxamide]	> 1000 nM
C[C@]1(C(N)=O)CC[C@@H](n2c(Nc3c(F)cc(F)cc3F)nc3cnc(N[C@@H]4CC[C@@H](O)C4)nc32)CC1 [Example 634, (1S,4s)-4-(2-((1R,3R)-3-hydroxycyclopentylamino)-8-(2,4,6-trifluorophenylamino)-9H-purin-9-yl)-1-methylcyclohexanecarboxamide]	500 to 1000 nM
Cc1ccc(S(=O)(=O)N2CCC[C@@H](Nc3ncc4nc(Nc5c(Cl)cc(Cl)cc5Cl)n([C@H]5CC[C@@H](C(N)=O)CC5)c4n3)C2)cc1 [Example 788, (1S,4s)-4-(2-((R)-1-tosylpiperidin-3-ylamino)-8-(2,4,6-trichlorophenylamino)-9H-purin-9-yl)cyclohexanecarboxamide]	> 1000 nM

Second part, the molecule after the results:

IC50	SMILES
250 to 500 nM	C[C@]1(C(N)=O)CC[C@@H](n2c(Nc3c(F)cc(F)cc3F)nc3cnc(N[C@H]4CCC[C@H](O)C4)nc32)CC1 [Example 609, (1R,4s)-4-(2-((1S,3S)-3-hydroxycyclohexylamino)-8-(2,4,6-trifluorophenylamino)-9H-purin-9-yl)-1-methylcyclohexanecarboxamide]
< 250 nM	C[C@]1(C(N)=O)CC[C@@H](n2c(Nc3c(Cl)cc(C#N)cc3Cl)nc3cnc(N[C@H]4CCC[C@H](O)C4)nc32)CC1 [Example 616, (1R,4s)-4-(8-(2,6-dichloro-4-cyanophenylamino)-2-((1S,3S)-3-hydroxycyclohexylamino)-9H-purin-9-yl)-1-methylcyclohexanecarboxamide]

same assay, conditions: Lox-IMVI melanoma cell line, anti-proliferative assay; read-out: Activity (IC50 activity level)

IC50	SMILES
< 250 nM	C[C@]1(C(N)=O)CC[C@@H](n2c(Nc3c(Cl)cc(F)cc3Cl)nc3cnc(NC4CCC4)nc32)CC1 [Example 606, (1s,4s)-4-(2-(cyclobutylamino)-8-(2,6-dichloro-4-fluorophenylamino)-9H-purin-9-yl)-1-methylcyclohexanecarboxamide]
